Read-outs that look alike come from different tables or passages of the source.
Assays:
[1] = target: beta (ERβ) estrogen receptor (Rattus norvegicus, UniProt Q62986); settings: cited from earlier work
[2] = target: T1, alpha (ERα) estrogen receptor (Homo sapiens, UniProt P03372); settings: cited from earlier work
T1 sequence (P03372 1-595): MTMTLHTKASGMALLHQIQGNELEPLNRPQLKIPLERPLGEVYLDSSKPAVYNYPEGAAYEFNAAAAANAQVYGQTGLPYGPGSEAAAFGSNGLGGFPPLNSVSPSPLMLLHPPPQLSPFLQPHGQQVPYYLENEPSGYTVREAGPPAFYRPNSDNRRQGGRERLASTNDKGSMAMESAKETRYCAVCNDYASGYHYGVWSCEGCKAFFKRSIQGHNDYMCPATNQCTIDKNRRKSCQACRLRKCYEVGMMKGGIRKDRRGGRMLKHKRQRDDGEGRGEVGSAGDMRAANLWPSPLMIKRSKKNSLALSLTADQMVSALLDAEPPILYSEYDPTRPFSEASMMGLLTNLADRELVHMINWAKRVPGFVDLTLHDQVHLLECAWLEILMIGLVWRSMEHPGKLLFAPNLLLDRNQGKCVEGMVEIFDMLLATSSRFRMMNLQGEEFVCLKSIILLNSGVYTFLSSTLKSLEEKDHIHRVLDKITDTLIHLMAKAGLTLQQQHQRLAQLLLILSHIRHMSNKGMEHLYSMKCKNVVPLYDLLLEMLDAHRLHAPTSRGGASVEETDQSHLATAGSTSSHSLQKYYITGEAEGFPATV

estrogen receptor [3] = settings: 107-compound training set; cited from earlier work
estrogen receptor [4] = experiment: estrogen receptor relative binding affinity, expanded training set of 107 compounds; settings: input class, 107-compound training set
Excerpt: The training set included weak estrogen receptor binders in addition to strong and medium estrogen receptor binders.
For this model, strong estrogen receptor binders were defined as having log(RBA)>−0.25 and weak estrogen receptor binders were defined as having log(RBA)<−3.0. Medium estrogen receptor binders were defined as having log(RBA) in between.

estrogen receptor [5] = experiment: estrogen receptor binding class of the 30-compound training set
Excerpt: Two Spectral Data-Activity Relationship (SDAR) models were established, based on ^13C NMR and EI MS spectra, for 30 estrogenic chemicals whose relative binding affinities (RBA) for the alpha (ERα) and beta (ERβ) estrogen receptors are available.
Strong binders to the estrogen receptor were classified as having a log (RBA) over 0.0, and medium binders to the estrogen receptor were classified as having a log (RBA) of less than or equal to 0.0.

[6] = log of relative binding affinity, 17-β-estradiol RBA = 100
[7] = SDAR training input endpoint class, 30 compounds

Chain of beta (ERβ) estrogen receptor (Q62986 whole entry): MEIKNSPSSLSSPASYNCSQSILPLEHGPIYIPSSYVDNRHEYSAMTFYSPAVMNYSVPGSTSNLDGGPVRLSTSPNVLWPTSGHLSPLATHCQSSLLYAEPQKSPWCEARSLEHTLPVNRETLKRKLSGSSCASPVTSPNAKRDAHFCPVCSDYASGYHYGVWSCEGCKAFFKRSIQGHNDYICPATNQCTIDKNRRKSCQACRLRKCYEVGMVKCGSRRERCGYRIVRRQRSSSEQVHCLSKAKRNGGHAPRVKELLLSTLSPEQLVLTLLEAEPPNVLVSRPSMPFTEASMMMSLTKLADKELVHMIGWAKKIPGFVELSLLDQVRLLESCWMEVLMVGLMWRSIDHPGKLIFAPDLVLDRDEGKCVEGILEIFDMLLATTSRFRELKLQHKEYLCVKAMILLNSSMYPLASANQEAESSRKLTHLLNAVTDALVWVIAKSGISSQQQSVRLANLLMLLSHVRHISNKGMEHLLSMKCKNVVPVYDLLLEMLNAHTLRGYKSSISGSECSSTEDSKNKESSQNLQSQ

| SMILES | Log-(RBA) beta [1, 6] | Log-(RBA) alpha [2, 6] | log RBA (estrogen receptor [3]) | Class (estrogen receptor [4]) | Class Input (estrogen receptor [5]; [7]) | Log-(RBA) beta [1] | Log-(RBA) alpha [2] | RBA class in words (estrogen receptor [5]) | Class Input (estrogen receptor [5]) |
| --- | --- | --- | --- | --- | --- | --- | --- | --- | --- |
| CC(C)(c1ccc(O)cc1)c1ccc(O)cc1 [Bisphenol A, 4,4′-isopropylidenediphenol] | −0.48 | −1.30 | −2.11 | M (Medium estrogen receptor binders were defined as having log(RBA) in between) | M (medium binders to the estrogen receptor were classified as having a log (RBA) of less than or equal to 0.0) |  |  |  |  |
| C[C@]12CC[C@@H](O)C[C@@H]1CC[C@@H]1[C@@H]2CC[C@]2(C)[C@@H](O)CC[C@@H]12 [3α-Androstanediol, 5α-Androstane-3α,17β-diol] |  |  | −2.67 | M (Medium estrogen receptor binders were defined as having log(RBA) in between) | M (medium binders to the estrogen receptor were classified as having a log (RBA) of less than or equal to 0.0) | −0.52 | −1.15 | medium |  |
| C#C[C@]1(O)CC[C@H]2[C@@H]3CCc4cc(O)ccc4[C@H]3[C@@H](OC)C[C@@]21C [Moxestrol] | 0.70 | 1.63 | 1.14 | S (strong estrogen receptor binders were defined as having log(RBA)>−0.25) | S (Strong binders to the estrogen receptor were classified as having a log (RBA) over 0.0) |  |  |  |  |
| CC[C@H](c1ccc(O)cc1)[C@@H](CC)c1ccc(O)cc1 [Hexestrol] | 2.37 | 2.48 | 2.48 | S (strong estrogen receptor binders were defined as having log(RBA)>−0.25) | S (Strong binders to the estrogen receptor were classified as having a log (RBA) over 0.0) |  |  |  |  |
| CC(=O)[C@H]1CC[C@H]2[C@@H]3CCC4=CC(=O)CC[C@]4(C)[C@H]3CC[C@]12C [Progesterone] | −3.50 | −3.50 |  | W (weak estrogen receptor binders were defined as having log(RBA)<−3.0) | M (medium binders to the estrogen receptor were classified as having a log (RBA) of less than or equal to 0.0) |  |  |  |  |
| C[C@]12CC[C@H](O)C[C@@H]1CC[C@@H]1[C@@H]2CC[C@]2(C)[C@@H](O)CC[C@@H]12 [3β-Androstanediol, 5α-Androstane-3β,17β-diol] |  |  | −0.92 | M (Medium estrogen receptor binders were defined as having log(RBA) in between) |  | 0.85 | 0.48 |  | S (key: Strong binders to the estrogen receptor were classified as having a log (RBA) over 0.0; M: medium binders to the estrogen receptor were classified as having a log (RBA) of less than or equal to 0.0) |
| COc1ccc(C(c2ccc(OC)cc2)C(Cl)(Cl)Cl)cc1 [Methoxychlor] |  |  | −3.2 |  | M (medium binders to the estrogen receptor were classified as having a log (RBA) of less than or equal to 0.0) | −0.89 | −2.00 |  |  |
| C/C=C(/C(=C/C)c1ccc(O)cc1)c1ccc(O)cc1 [Dienestrol] | 2.61 | 2.35 | 1.57 | S (strong estrogen receptor binders were defined as having log(RBA)>−0.25) | S (Strong binders to the estrogen receptor were classified as having a log (RBA) over 0.0) |  |  |  |  |
